# Data from US20230190690A1, “[…] AND/OR […] FOR CORONAVIRUS DISEASE 2019 (COVID-19)” (NEOPHARMA JAPAN CO., LTD., priority 2020, published 2023).
# Read-outs that look alike come from different tables or passages of the source.
# Columns and labels:
# SARS-CoV-2 [1] = experiment: microbe, parasite or virus in culture; format: cell-based, SARS-CoV-2 (VeroE6, African green monkey kidney cells)
# [2] = test system: coronavirus disease 2019 (COVID-19); experiment: Treatment example: intake of supplement capsules by a patient with COVID-19 symptoms; format: in vivo, human; conditions: 1 patient; intake of capsules over two days
# [3] = test system: VeroE6 cells, Caco-2 cells; experiment: Cytotoxic effect in VeroE6 and Caco-2 cells; format: cell-based; conditions: all concentration ranges tested (up to 2000 uM)
# Experimental: In order to confirm the dose dependence in the inhibitory effect on SARS-CoV-2 infection and/or proliferation, the agents at each concentration were tested.
# SARS-CoV-2 [4] = experiment: microbe, parasite or virus in culture; format: cell-based, SARS-CoV-2 (Caco-2, human colon cancer cells)
compound,measurement,setting,value
"NCC(=O)CCC(=O)O [5-ALA, 5-aminolevulinic acid]",IC50,"SARS-CoV-2 [1]; Severe acute respiratory syndrome coronavirus 2, Vero C1008, VeroE6 cells, FIG. 5, read-out: IC50 of inhibition of SARS-CoV-2 infection and/or proliferation",570 µM
same,infection with SARS-CoV-2,"SARS-CoV-2 [1]; VeroE6, number of seeded cells 1×10^4 cells/well",significantly inhibited
same,various symptoms of coronavirus disease 2019 (COVID-19),[2],remarkably improved
same,cytotoxicity,[3],did not show significant cytotoxicity
same,SARS-CoV-2 infection and/or proliferation,SARS-CoV-2 [4],strongly inhibited
same,IC50,"SARS-CoV-2 [4]; Severe acute respiratory syndrome coronavirus 2, Caco-2 cells, FIG. 6, read-out: IC50 of inhibition of SARS-CoV-2 infection and/or proliferation",39 µM
sodium ferrous citrate [SFC],"inhibitory effect on SARS-CoV-2 infection and/or proliferation, dose dependence","SARS-CoV-2 [1]; VeroE6 cells, FIG. 5",no inhibitory effect
